# Measurements taken from ChEMBL document CHEMBL3872207, “Aromatic heterocyclic esters of podophyllotoxin exert anti-MDR activity in human leukemia K562/ADR cells via ROS/MAPK signaling pathways” (Eur J Med Chem, 2016).
# The source made the active and inactive calls. The calls are words filed in the database; no cut-off is given here.
# How the values were obtained:
# [1] = Downregulation of P-gp expression in human K562/ADR cells assessed as ratio of P-gp to beta-actin level at 0.1 uM pretreated with ROS scavenger NAC for 2 hrs followed by compound addition measured after 48 hrs by Western blot analysis (reference value: 0.63); assay type: functional, cell-based
# K562/Adr [2] = test: Induction of apoptosis in human K562/ADR cells assessed as cell shrinkage at 0.1 uM measured after 24 hrs by Hoechst33342 staining-based inverted fluorescent microscopic analysis; assay type: functional
# [3] = Downregulation of CDK1 expression in human K562/ADR cells assessed as ratio of CDK1 to beta-actin level at 0.1 uM measured after 48 hrs by Western blot analysis (reference value: 0.53); assay type: functional, cell-based
# [4] = Downregulation of P-gp expression in human K562/ADR cells assessed as ratio of P-gp to beta-actin level at 0.1 uM pretreated with MAPK inhibitor U0126 for 1 hr followed by compound addition measured after 48 hrs by Western blot analysis (reference value: 0.63); assay type: functional, cell-based
# K562/Adr [5] = test: Induction of apoptosis in human K562/ADR cells assessed as necrotic cells at 0.1 uM after 48 hrs by Annexin V-APC/7-AAD staining based flow cytometry (reference value: 0.26%); assay type: functional
# [6] = Downregulation of CDK2 expression in human K562/ADR cells assessed as ratio of CDK2 to beta-actin level at 0.1 uM pretreated with ROS scavenger NAC for 2 hrs followed by compound addition measured after 48 hrs by Western blot analysis (reference value: 0.65); assay type: functional, cell-based
# [7] = Downregulation of CyclinA expression in human K562/ADR cells assessed as ratio of CyclinA to beta-actin level at 0.1 uM pretreated with MAPK inhibitor SP600125 for 1 hr followed by compound addition measured after 48 hrs by Western blot analysis (reference value: 0.64); assay type: functional, cell-based
# K562/Adr [8] = test: Induction of apoptosis in human K562/ADR cells assessed as ratio of cleaved caspase-8 to beta-actin level at 0.1 uM measured after 48 hrs by Western blot analysis (reference value: 0.07); assay type: functional
# [9] = Downregulation of CyclinA expression in human K562/ADR cells assessed as ratio of CyclinA to beta-actin level at 0.1 uM pretreated with MAPK inhibitor SB203580 for 1 hr followed by compound addition measured after 48 hrs by Western blot analysis (reference value: 0.64); assay type: functional, cell-based
# K562/Adr [10] = test: Induction of apoptosis in human K562/ADR cells assessed as necrotic cells at 0.1 uM pretreated with MAPK inhibitor SP600125 for 1 hr followed by compound addition after 48 hrs by Annexin V-APC/7-AAD staining based flow cytometry (reference value: 0.26%); assay type: functional; parameters: scale not given: the % may be the effect or the level left
# K562/Adr [11] = test: Induction of apoptosis in human K562/ADR cells assessed as ratio of cleaved PARP to beta-actin level at 0.1 uM pretreated with MAPK inhibitor SB203580 for 1 hr followed by compound addition measured after 48 hrs by Western blot analysis (reference value: 0.04); assay type: functional
# K562/Adr [12] = test: Induction of apoptosis in human K562/ADR cells assessed as late apoptotic cells at 0.1 uM pretreated with MAPK inhibitor SB203580 for 1 hr followed by compound addition after 48 hrs by Annexin V-APC/7-AAD staining based flow cytometry (reference value: 1.69%); assay type: functional; parameters: scale not given: the % may be the effect or the level left
# K562/Adr [13] = test: Induction of apoptosis in human K562/ADR cells assessed as ratio of cleaved PARP to beta-actin level at 0.1 uM measured after 48 hrs by Western blot analysis (reference value: 0.04); assay type: functional
# [14] = Cell cycle arrest in human K562/ADR cells assessed as accumulation at S-phase at 0.1 uM measured after 48 hrs by propidium iodide staining-based flow cytometry (reference value: 47.29 +/- 2.22%); assay type: functional
# K562/Adr [15] = test: Induction of apoptosis in human K562/ADR cells assessed as late apoptotic cells at 0.1 uM pretreated with ROS scavenger NAC for 2 hrs followed by compound addition after 48 hrs by Annexin V-APC/7-AAD staining based flow cytometry (reference value: 1.69%); assay type: functional
# [16] = target: c-Jun N-terminal kinase, JNK (Homo sapiens) (UniProt P45983+P53779+P45984); test: Induction of JNK phosphorylation in human K562/ADR cells assessed as ratio of phosphorylated JNK to beta-actin level at 0.1 uM pretreated with MAPK inhibitor U0126 for 1 hr followed by compound addition after 48 hrs by Western blotting method (reference value: 0.46); assay type: cell-based
# K562/Adr [17] = test: Induction of ERK1/2 phosphorylation in human K562/ADR cells assessed as ratio of phosphorylated ERK1/2 to beta-actin level at 0.1 uM measured after 48 hrs by Western blotting (reference value: 0.22); assay type: cell-based
# K562/Adr [18] = test: Induction of apoptosis in human K562/ADR cells assessed as chromatin condensation at 0.1 uM measured after 24 hrs by Hoechst33342 staining-based inverted fluorescent microscopic analysis; assay type: functional, cell-based
# K562/Adr [19] = test: Induction of apoptosis in human K562/ADR cells assessed as necrotic cells at 0.1 uM pretreated with MAPK inhibitor SB203580 for 1 hr followed by compound addition after 48 hrs by Annexin V-APC/7-AAD staining based flow cytometry (reference value: 0.26%); assay type: functional; parameters: scale not given: the % may be the effect or the level left
# K562 = test: Resistance index, ratio of IC50 for human K562/ADR cells to IC50 for human K562 cells; assay type: functional
# K562/Adr [20] = test: Induction of ERK1/2 phosphorylation in human K562/ADR cells assessed as ratio of phosphorylated ERK1/2 to beta-actin level at 0.1 uM pretreated with ROS scavenger NAC for 2 hrs followed by compound addition after 48 hrs by Western blotting method (reference value: 0.22); assay type: cell-based
# K562/Adr [21] = test: Induction of apoptosis in human K562/ADR cells assessed as ratio of cleaved caspase-8 to beta-actin level at 0.1 uM pretreated with ROS scavenger NAC for 2 hrs followed by compound addition measured after 48 hrs by Western blot analysis (reference value: 0.07); assay type: functional
# K562/Adr [22] = test: Induction of apoptosis in human K562/ADR cells assessed as viable cells at 0.1 uM pretreated with ROS scavenger NAC for 2 hrs followed by compound addition after 48 hrs by Annexin V-APC/7-AAD staining based flow cytometry (reference value: 95.31%); assay type: functional; settings: read-out: Activity
# K562/Adr [23] = test: Induction of apoptosis in human K562/ADR cells assessed as early apoptotic cells at 0.1 uM pretreated with ROS scavenger NAC for 2 hrs followed by compound addition after 48 hrs by Annexin V-APC/7-AAD staining based flow cytometry (reference value: 2.74%); assay type: functional
# [24] = target: T1, MAP kinase p38 (Homo sapiens) (UniProt O15264+Q15759+Q16539+P53778); test: Induction of P38 phosphorylation in human K562/ADR cells assessed as ratio of phosphorylated p38 to beta-actin level at 0.1 uM measured after 48 hrs by Western blotting method (reference value: 0.25); assay type: cell-based
# [25] = target: T1, MAP kinase p38 (Homo sapiens); test: Induction of P38 phosphorylation in human K562/ADR cells assessed as ratio of phosphorylated p38 to beta-actin level at 0.1 uM pretreated with ROS scavenger NAC for 2 hrs followed by compound addition after 48 hrs by Western blotting method (reference value: 0.25); assay type: cell-based
structure (smiles),measurement,setting,value
COc1cc([C@@H]2c3cc4c(cc3[C@H](OC(=O)c3ccco3)[C@H]3COC(=O)[C@H]23)OCO4)cc(OC)c1OC,Ratio,[1],0.66
same,Activity,K562/Adr [2],Active
same,Ratio,[3],0.17
same,Ratio,[4],0.35
same,Activity,K562/Adr [5],5.49%
same,Ratio,[6],0.43
same,Ratio,[7],0.31
same,Ratio,K562/Adr [8],0.77
same,Ratio,[9],0.34
same,Activity,K562/Adr [10],3.42%
same,Ratio,K562/Adr [11],0.48
same,Activity,K562/Adr [12],30.87%
same,Ratio,K562/Adr [13],0.84
same,Activity,[14],60.8%
same,Activity,K562/Adr [15],24.34%
same,Ratio,[16],0.35
same,Ratio,K562/Adr [17],0.33
same,Activity,K562/Adr [18],Active
same,Activity,K562/Adr [19],2.86%
same,Ratio IC50,K562,1.28
same,Ratio,K562/Adr [20],0.22
same,Ratio,K562/Adr [21],0.15
same,viability at 0.1 µM,K562/Adr [22],65.5%
same,Activity,K562/Adr [23],8.06%
same,Ratio,[24],0.46
same,Ratio,[25],0.29
